Experimental findings from patent US8846694B2, “Pyrrolidone derivatives for use as MetAP-2 inhibitors” (Merck Patent GmbH, priority 2008, dated 2014) are described below.

Values after ≈ are worked out from the molar mass of the structure shown.

One series deals with MetAP-2 (Homo sapiens, UniProt P50579). Description: MetAP-2 activity measurement (coupled enzymatic reactions, substrate Met-Arg-Ser, photometric at 450 nm). It is filed as biochemical. The note with it: read-out: IC50 enzyme (Inhibition of MetAP-2). The essentials: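 Human MetAP-2 cleaves Met-Arg-Ser; the freed methionine is oxidized by L-amino acid oxidase, and the resulting H2O2 drives peroxidase oxidation of dianisidine, read continuously at 450 nm. Activity is taken as the slope in the visually linear region.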
MetAP-2, sequence (P50579 whole entry, species assumed): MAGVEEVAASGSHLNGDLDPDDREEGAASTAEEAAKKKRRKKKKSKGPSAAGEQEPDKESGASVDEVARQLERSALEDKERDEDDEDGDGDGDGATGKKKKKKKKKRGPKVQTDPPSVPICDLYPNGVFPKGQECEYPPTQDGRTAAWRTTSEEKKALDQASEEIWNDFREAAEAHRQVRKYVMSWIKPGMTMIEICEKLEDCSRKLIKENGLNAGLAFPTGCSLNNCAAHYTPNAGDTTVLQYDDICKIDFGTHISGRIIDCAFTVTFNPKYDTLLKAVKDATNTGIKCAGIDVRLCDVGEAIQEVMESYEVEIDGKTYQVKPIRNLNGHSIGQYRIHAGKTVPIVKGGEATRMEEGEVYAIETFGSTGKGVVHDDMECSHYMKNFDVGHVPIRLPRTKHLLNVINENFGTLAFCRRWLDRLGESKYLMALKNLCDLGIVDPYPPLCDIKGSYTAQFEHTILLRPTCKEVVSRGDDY

Series [1] in a line: Shake flask solubility measurement. Type of series: physicochemical. The note with it: shaken at 37° C. for 24 h. The procedure:
Determination by Shake Flask Solubility Measurement
• Eluent A: 2 ml of diethylamine, for synthesis+1000 ml of methanol, LiChrosolv • Eluent B: 5 g of ammonium acetate, for analysis+5 ml of methanol, LiChrosolv+995 ml of ultrapure water Sample Solvent:
Buffer: 3.954 g of sodium dihydrogenphosphate monohydrate+6.024 g of sodium chloride+950 ml of ultrapure water the pH is adjusted using 0.1 M NaOH or 0.1 M HCl.
The samples are shaken at 37° C. and 450 rpm for 24 h.
After about 7 h, the pH of the samples is checked and adjusted if necessary. It is also checked whether the sample is still present in excess.
Just before the end of the 24 h shaking time, the samples are again checked for pH and a precipitate.

The IC50 is the midpoint of a concentration-inhibition curve. As usually defined, the melting point is the temperature of the solid-liquid transition. For `F[C@H]1C[C@H](COc2ccccc2Cl)N(c2ncnc3[nH]cnc23)C1` [A7, 6-[(2R,4S)-2-(2-chlorophenoxymethyl)-4-fluoropyrrolidin-1-yl]-9H-purine], the melting point was in the range of 143 to 144 °C. In addition, the half-inhibitory concentration (IC50) at MetAP-2 lay in the range of 1000 to 10000 nM.

Take `O=Cc1ccc(OC[C@H]2CCCN2c2ncnc3[nH]cnc23)c2ccccc12` [A2, 4-[(R)-1-(9H-purin-6-yl)pyrrolidin-2-ylmethoxy]naphthalene-1-carbaldehyde]: the melting point lay within 167 to 168 °C. Moreover, on MetAP-2, the concentration for half-maximal inhibition (IC50) lay within 10 to 1000 nM.

`O=C(c1ccc(CCC2CCCN2c2ncnc3[nH]cnc23)c2ccccc12)N1CCOCC1` (racemic) [A6, morpholin-4-yl-(4-{2-[-1-(9H-purin-6-yl)pyrrolidin-2-yl]ethyl}naphthalen-1-yl)methanone] displayed a melting point of 158 to 160 °C.

One may read the solubility as how much of the substance goes into solution per volume. Take `CC(O)CNC(=O)c1cc(OC[C@H]2CCCN2c2ncnc3[nH]cnc23)c2ccccc2n1` (stereo partly shown): in series [1] (shake flask, buffer), the solubility worked out at 325 µg/mL (≈ 726 µM).

For the compound `c1ccc2c(OC[C@H]3CCCN3c3ncnc4[nH]cnc34)ccc(CNCCN3CCOCC3)c2c1` [(2-morpholin-4-ylethyl)-{4-[(R)-1-(9H-purin-6-yl)pyrrolidin-2-ylmethoxy]naphthalen-1-ylmethyl}amine], the solubility at 24 h in series [1] (sodium phosphate/sodium chloride buffer, aqueous buffer, thermodynamic from solid, buffer system at pH 7) is 283 µg/mL (≈ 580 µM).
